Experimental data: PubChem BioAssay AID328 (DTP/NCI, 2004)
“And” between values parts separate entries of the source, which are not always exact repeats. Equal entries are not always repeated. Inconclusive results and toxic doses are left out.

System: BDF1 mice, P388 leukemia ip, median survival T/C
Experiment: NCI In Vivo Anticancer Drug Screen. Data for tumor model P388 Leukemia (intraperitoneal) in B6D2F1 (BDF1) mice
Details: endpoint: median survival time, higher = longer survival
Summary of the method: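 Vehicle-dosed animals serve as the reference; survival of compound-dosed, tumour-implanted mice is divided by it.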

[1] = dose: 25.0 mg/kg/injection, schedule: Q01DX009 (ip), vehicle: saline with Tween-80
[2] = dose: 25.0 mg/kg/injection, schedule: Q01DX009 (ip), vehicle: saline
[3] = dose: 50.0 mg/kg/injection, schedule: Q01DX009 (ip), vehicle: saline
[4] = dose: 100.0 mg/kg/injection, schedule: Q01DX009 (ip), vehicle: saline
[5] = dose: 200.0 mg/kg/injection, schedule: Q01DX009 (ip), vehicle: saline
[6] = dose: 50.0 mg/kg/injection, schedule: Q01DX009 (ip), vehicle: saline with Tween-80
[7] = dose: 100.0 mg/kg/injection, schedule: Q01DX009 (ip), vehicle: saline with Tween-80
[8] = dose: 200.0 mg/kg/injection, schedule: Q01DX009 (ip), vehicle: saline with Tween-80

SMILES: O=C1CC(Cl)C(=O)N1c1ccccc1 (stereo not given)
- T/C (dose: 75.0 mg/kg/injection, schedule: Q04DX003 (ip), vehicle: saline with Tween-80): 108 % of control
- T/C (dose: 150.0 mg/kg/injection, schedule: Q04DX003 (ip), vehicle: saline with Tween-80): 104 % of control
- T/C (dose: 300.0 mg/kg/injection, schedule: Q04DX003 (ip), vehicle: saline with Tween-80): 104 % of control

SMILES: CCCCCCCCCCCCCCCC(=O)N(CCCN)C(C)CCCN(CC)CC (stereo not given)
- T/C (dose: 12.5 mg/kg/injection, schedule: Q01DX009 (ip), vehicle: saline with Tween-80): 106 % of control
- T/C [1]: 99 % of control
- T/C (dose: 50.0 mg/kg/injection, schedule: Q04DX003 (ip), vehicle: saline with Tween-80): 107 % of control
- T/C (dose: 100.0 mg/kg/injection, schedule: Q04DX003 (ip), vehicle: saline with Tween-80): 93 % of control

SMILES: CC(CN1CC(=O)NC(=O)C1)N1CC(=O)NC(=O)C1.[Cl-].[Pt+4] (stereo not given)
- T/C (dose: 12.5 mg/kg/injection, schedule: Q01DX009 (ip), vehicle: saline): 100 % of control
- T/C [2]: 95 % of control and 118 % of control
- T/C [3]: 97 % of control
- T/C [4]: 91 % of control
- T/C [5]: 105 % of control

SMILES: Cc1ccc[nH]c1=O
- T/C (dose: 50.0 mg/kg/injection, schedule: Q04DX003 (ip), vehicle: saline sonified): 91 % of control
- T/C (dose: 100.0 mg/kg/injection, schedule: Q04DX003 (ip), vehicle: saline sonified): 91 % of control
- T/C (dose: 200.0 mg/kg/injection, schedule: Q04DX003 (ip), vehicle: saline sonified): 100 % of control

SMILES: COc1cc(CCC(NC(C)=O)c2cccc(O)c(=O)c2)cc(OC)c1OC (stereo not given)
- T/C [1]: 90 % of control
- T/C [6]: 96 % of control
- T/C [7]: 90 % of control
- T/C [8]: 91 % of control

SMILES: CN(C)c1ccc(-c2nc3ccccn3c2N)cc1
- T/C (dose: 1.56 mg/kg/injection, schedule: Q01DX009 (ip), vehicle: saline): 105 % of control
- T/C (dose: 3.13 mg/kg/injection, schedule: Q01DX009 (ip), vehicle: saline): 96 % of control
- T/C (dose: 6.25 mg/kg/injection, schedule: Q01DX009 (ip), vehicle: saline): 113 % of control

SMILES: CCOC(=S)SCC(=O)Nc1ccc(Br)cc1
- T/C (dose: 15.0 mg/kg/injection, schedule: Q01DX009 (ip), vehicle: saline with Tween-80): 93 % of control
- T/C (dose: 30.0 mg/kg/injection, schedule: Q01DX009 (ip), vehicle: saline with Tween-80): 96 % of control
- T/C (dose: 60.0 mg/kg/injection, schedule: Q01DX009 (ip), vehicle: saline with Tween-80): 98 % of control

SMILES: CCOP(=O)(OCC)C(C)OC (stereo not given)
- T/C [3]: 100 % of control and 105 % of control
- T/C [4]: 115 % of control and 116 % of control
- T/C [5]: 104 % of control and 120 % of control
- T/C (dose: 400.0 mg/kg/injection, schedule: Q01DX009 (ip), vehicle: saline): 100 % of control

SMILES: CCCCCCCCCCC(=O)[O][Sn]([CH](C)C)([CH](C)C)[CH](C)C
- T/C (dose: 12.5 mg/kg/injection, schedule: Q01DX009 (ip), vehicle: saline + Tween-80 + alcohol): 109 % of control
- T/C (dose: 25.0 mg/kg/injection, schedule: Q01DX009 (ip), vehicle: saline + Tween-80 + alcohol): 119 % of control

SMILES: Cn1ncc2c(NCCc3ccccc3)ncnc21
- T/C [1]: 100 % of control
- T/C [6]: 100 % of control

SMILES: CC(=O)Nc1ccc(S(=O)(=O)SC(F)(F)F)cc1
- T/C (dose: 3.13 mg/kg/injection, schedule: Q01DX010 (ip), vehicle: saline): 100 % of control
- T/C (dose: 6.25 mg/kg/injection, schedule: Q01DX010 (ip), vehicle: saline): 104 % of control
- T/C (dose: 12.5 mg/kg/injection, schedule: Q01DX010 (ip), vehicle: saline): 100 % of control

SMILES: O=C(O)CCNCc1ccccc1
- T/C [2]: 93 % of control
- T/C [3]: 108 % of control
- T/C [4]: 117 % of control
- T/C [5]: 88 % of control

SMILES: CCC/[N+]([O-])=C/c1ccc([N+](=O)[O-])o1
- T/C [1]: 101 % of control
- T/C [6]: 105 % of control
- T/C [7]: 115 % of control

SMILES: CCCCCCCCNC(=O)C1OC(n2cnc3c(N)ncnc32)C(O)C1O (stereo not given)
- T/C [2]: 95 % of control
- T/C [3]: 90 % of control
- T/C [4]: 95 % of control and 105 % of control
- T/C (dose: 100.0 mg/kg/injection, schedule: Q04DX003 (ip), vehicle: saline): 95 % of control
- T/C [5]: 90 % of control and 109 % of control
- T/C (dose: 200.0 mg/kg/injection, schedule: Q04DX003 (ip), vehicle: saline): 105 % of control
- T/C (dose: 400.0 mg/kg/injection, schedule: Q04DX003 (ip), vehicle: saline): 90 % of control

SMILES: C[C@H](CCC[C@H](C)OS(=O)(=O)c1ccccc1)OS(=O)(=O)c1ccccc1
- T/C [1]: 117 % of control
- T/C [6]: 99 % of control and 116 % of control
- T/C [7]: 155 % of control
- T/C [8]: 156 % of control and 180 % of control
- T/C (dose: 400.0 mg/kg/injection, schedule: Q01DX009 (ip), vehicle: saline with Tween-80): 182 % of control
